According to PMC4890880 (ACS infectious diseases, 2016):
Where two headings read alike, the source gives them in different places.

Experiments:
[1] = system: Plasmodium berghei (Pb-Luc) exoerythrocytic-stage parasites; conditions: for normalised signal at concentration 10 (first series): concentration 10, first series of dose columns; for normalised signal at concentration 10 (second series): concentration 10, second series of dose columns; for IC50: read-out: PbLuc_IC50; for normalized signal at concentration 0.000508053 / normalized signal at concentration 0.00152416 / normalized signal at concentration 0.00457247 / normalized signal at concentration 0.0137174 / normalized signal at concentration 0.0411523 / normalized signal at concentration 0.123457 / normalized signal at concentration 0.37037 / normalized signal at concentration 1.11111 / normalized signal at concentration 3.33333 / normalized signal at concentration 10: fraction of control
[2] = system: HepG2-A16-CD81EGFP cells; conditions: for IC50: read-out: Tox_IC50, HepG2 cytotoxicity
[3] = sheet "2nd round", Broad compounds, dose response top concentration 10
[4] = second series of columns (replicate)
[5] = sheet 2nd round, maximal inhibition in dose response
[6] = first series of dose-response columns
[7] = sheet 2nd round, Broad compounds, dose response
[8] = second series of dose-response columns

Structure (SMILES): O=C(NCc1ccc2c(c1)OCO2)[C@@H]1[C@@H](CO)[C@@H]2Cn3c(cccc3=O)[C@H]1N2Cc1cncnc1 [BRD-K31004267-001-01-6]
- normalised signal at concentration 0.000508053 (first series) [1]: 0.9455
- normalised signal at concentration 0.000508053 (second series) [1]: 0.7294
- normalised signal at concentration 0.00152416 (first series) [1]: 0.9922
- normalised signal at concentration 0.00152416 (second series) [1]: 1.083
- normalised signal at concentration 0.00457247 (first series) [1]: 0.9907
- normalised signal at concentration 0.00457247 (second series) [1]: 0.8279
- normalised signal at concentration 0.0137174 (first series) [1]: 0.9424
- normalised signal at concentration 0.0137174 (second series) [1]: 0.9304
- normalised signal at concentration 0.0411523 (first series) [1]: 0.8128
- normalised signal at concentration 0.0411523 (second series) [1]: 1.152
- normalised signal at concentration 0.123457 (first series) [1]: 0.8401
- normalised signal at concentration 0.123457 (second series) [1]: 1.066
- normalised signal at concentration 0.37037 (first series) [1]: 1.129
- normalised signal at concentration 0.37037 (second series) [1]: 0.8899
- normalised signal at concentration 1.11111 (first series) [1]: 0.9661
- normalised signal at concentration 1.11111 (second series) [1]: 0.8895
- normalised signal at concentration 3.33333 (first series) [1]: 0.7673
- normalised signal at concentration 3.33333 (second series) [1]: 0.9284
- normalised signal at concentration 10 (first series) [1]: 1.039
- normalised signal at concentration 10 (second series) [1]: 0.9564
- IC50 [1, 3]: > 10 µM
- PbLuc_max_inhibition (%) ([1]; sheet "2nd round"): 27%
- IC50 ([2]; sheet "2nd round"): > 10 µM
- Tox_max_inhibition (%) ([2]; sheet "2nd round"): 14%

Structure (SMILES): C[C@H](CO)N1C[C@H](C)[C@@H](CN(C)S(=O)(=O)c2ccc(F)cc2)OCCCC[C@H](C)Oc2ccc(N(C)C)cc2C1=O [BRD-K31169989-001-01-4]
- normalised signal at concentration 0.000508053 (first series) [1]: 0.9593
- normalised signal at concentration 0.000508053 (second series) [1]: 1.075
- normalised signal at concentration 0.00152416 (first series) [1]: 0.7705
- normalised signal at concentration 0.00152416 (second series) [1]: 0.9043
- normalised signal at concentration 0.00457247 (first series) [1]: 0.8601
- normalised signal at concentration 0.00457247 (second series) [1]: 0.8661
- normalised signal at concentration 0.0137174 (first series) [1]: 0.7407
- normalised signal at concentration 0.0137174 (second series) [1]: 1.136
- normalised signal at concentration 0.0411523 (first series) [1]: 1.052
- normalised signal at concentration 0.0411523 (second series) [1]: 0.8649
- normalised signal at concentration 0.123457 (first series) [1]: 0.7251
- normalised signal at concentration 0.123457 (second series) [1]: 0.9568
- normalised signal at concentration 0.37037 (first series) [1]: 0.9029
- normalised signal at concentration 0.37037 (second series) [1]: 0.9798
- normalised signal at concentration 1.11111 (first series) [1]: 0.7471
- normalised signal at concentration 1.11111 (second series) [1]: 0.8642
- normalised signal at concentration 3.33333 (first series) [1]: 0.9659
- normalised signal at concentration 3.33333 (second series) [1]: 0.7643
- normalised signal at concentration 10 (first series) [1]: 0.5392
- normalised signal at concentration 10 (second series) [1]: 0.607
- IC50 [1, 3]: > 10 µM
- PbLuc_max_inhibition (%) ([1]; sheet "2nd round"): 46%
- IC50 ([2]; sheet "2nd round"): > 10 µM
- Tox_max_inhibition (%) ([2]; sheet "2nd round"): 13%

Structure (SMILES): Cc1noc(C)c1S(=O)(=O)N(C)C[C@@H]1OCCCC[C@@H](C)Oc2ccc(N(C)C)cc2C(=O)N([C@@H](C)CO)C[C@H]1C [BRD-K31367750-001-01-1]
- normalized signal at concentration 0.000508053 ([1]; first series of columns): 1.082
- normalized signal at concentration 0.00152416 ([1]; first series of columns): 1.078
- normalized signal at concentration 0.00457247 ([1]; first series of columns): 1.115
- normalized signal at concentration 0.0137174 ([1]; first series of columns): 1.059
- normalized signal at concentration 0.0411523 ([1]; first series of columns): 1.054
- normalized signal at concentration 0.123457 ([1]; first series of columns): 1.1
- normalized signal at concentration 0.37037 ([1]; first series of columns): 1.064
- normalized signal at concentration 1.11111 ([1]; first series of columns): 0.9576
- normalized signal at concentration 3.33333 ([1]; first series of columns): 1.005
- normalized signal at concentration 10 ([1]; first series of columns): 1.057
- IC50 ([1]; sheet 2nd round, Pb-Luc exoerythrocytic stage, 10-point dose response, top concentration 10): > 10 µM
- normalized signal at concentration 0.000508053 [1, 4]: 1.02
- normalized signal at concentration 0.00152416 [1, 4]: 0.9419
- normalized signal at concentration 0.00457247 [1, 4]: 0.9058
- normalized signal at concentration 0.0137174 [1, 4]: 0.8746
- normalized signal at concentration 0.0411523 [1, 4]: 0.9045
- normalized signal at concentration 0.123457 [1, 4]: 0.9742
- normalized signal at concentration 0.37037 [1, 4]: 0.91
- normalized signal at concentration 1.11111 [1, 4]: 0.8518
- normalized signal at concentration 3.33333 [1, 4]: 0.8811
- normalized signal at concentration 10 [1, 4]: 0.9567
- PbLuc_max_inhibition (%) [1, 5]: 15%
- IC50 ([2]; sheet 2nd round): > 10 µM
- Tox_max_inhibition (%) [2, 5]: 10%

Structure (SMILES): C[C@H]1CCCCO[C@@H](CN(C)S(=O)(=O)c2ccc(F)cc2)[C@@H](C)CN([C@@H](C)CO)C(=O)c2cc(N(C)C)ccc2O1 [BRD-K31467596-001-01-7]
- normalised signal at concentration 0.000508053 (first series) [1]: 0.9636
- normalised signal at concentration 0.000508053 (second series) [1]: 1.196
- normalised signal at concentration 0.00152416 (first series) [1]: 0.9009
- normalised signal at concentration 0.00152416 (second series) [1]: 1.029
- normalised signal at concentration 0.00457247 (first series) [1]: 1.0859
- normalised signal at concentration 0.00457247 (second series) [1]: 1.054
- normalised signal at concentration 0.0137174 (first series) [1]: 0.8351
- normalised signal at concentration 0.0137174 (second series) [1]: 0.885
- normalised signal at concentration 0.0411523 (first series) [1]: 0.8724
- normalised signal at concentration 0.0411523 (second series) [1]: 1.048
- normalised signal at concentration 0.123457 (first series) [1]: 0.8924
- normalised signal at concentration 0.123457 (second series) [1]: 0.8988
- normalised signal at concentration 0.37037 (first series) [1]: 0.8075
- normalised signal at concentration 0.37037 (second series) [1]: 0.9035
- normalised signal at concentration 1.11111 (first series) [1]: 1.0319
- normalised signal at concentration 1.11111 (second series) [1]: 1.046
- normalised signal at concentration 3.33333 (first series) [1]: 0.9413
- normalised signal at concentration 3.33333 (second series) [1]: 0.9885
- normalised signal at concentration 10 (first series) [1]: 0.7997
- normalised signal at concentration 10 (second series) [1]: 0.6635
- IC50 [1, 3]: > 10 µM
- PbLuc_max_inhibition (%) ([1]; sheet "2nd round"): 34%
- IC50 ([2]; sheet "2nd round"): > 10 µM
- Tox_max_inhibition (%) ([2]; sheet "2nd round"): 19%

Structure (SMILES): COc1ccc(NC(=O)N(C)C[C@H]2Oc3ccc(NC(=O)CCN4CCOCC4)cc3C(=O)N([C@H](C)CO)C[C@@H]2C)cc1 [BRD-K36853881-001-02-5]
- normalized signal at concentration 10 [1, 6]: 0.82
- normalized signal at concentration 0.000508053 ([1]; first series): 0.84
- normalized signal at concentration 0.00152416 ([1]; first series): 0.86
- normalized signal at concentration 0.00457247 ([1]; first series): 0.85
- normalized signal at concentration 0.0137174 ([1]; first series): 0.75
- normalized signal at concentration 0.0411523 ([1]; first series): 0.91
- normalized signal at concentration 0.123457 ([1]; first series): 0.88
- normalized signal at concentration 0.37037 ([1]; first series): 0.86
- normalized signal at concentration 1.11111 ([1]; first series): 0.92
- normalized signal at concentration 3.33333 ([1]; first series): 0.69
- IC50 [1, 7]: > 10 µM
- normalized signal at concentration 10 [1, 8]: 0.77
- normalized signal at concentration 0.000508053 ([1]; second series): 1.01
- normalized signal at concentration 0.00152416 ([1]; second series): 0.81
- normalized signal at concentration 0.00457247 ([1]; second series): 0.82
- normalized signal at concentration 0.0137174 ([1]; second series): 0.71
- normalized signal at concentration 0.0411523 ([1]; second series): 0.92
- normalized signal at concentration 0.123457 ([1]; second series): 0.81
- normalized signal at concentration 0.37037 ([1]; second series): 0.84
- normalized signal at concentration 1.11111 ([1]; second series): 0.84
- normalized signal at concentration 3.33333 ([1]; second series): 0.84
- PbLuc_max_inhibition (%) [1, 5]: 31%
- IC50 ([2]; sheet 2nd round): > 10 µM
- Tox_max_inhibition (%) [2, 5]: 9%

Structure (SMILES): C[C@H]1CCCCO[C@H](CN(C)S(=O)(=O)c2ccc(F)cc2)[C@@H](C)CN([C@@H](C)CO)C(=O)c2cc(N(C)C)ccc2O1 [BRD-K38571893-001-01-9]
- normalized signal at concentration 10 [1, 6]: 0.89
- normalized signal at concentration 0.000508053 ([1]; first series): 0.97
- normalized signal at concentration 0.00152416 ([1]; first series): 0.98
- normalized signal at concentration 0.00457247 ([1]; first series): 0.90
- normalized signal at concentration 0.0137174 ([1]; first series): 0.78
- normalized signal at concentration 0.0411523 ([1]; first series): 1.07
- normalized signal at concentration 0.123457 ([1]; first series): 1.18
- normalized signal at concentration 0.37037 ([1]; first series): 0.95
- normalized signal at concentration 1.11111 ([1]; first series): 0.97
- normalized signal at concentration 3.33333 ([1]; first series): 0.87
- IC50 [1, 7]: > 10 µM
- normalized signal at concentration 10 [1, 8]: 0.80
- normalized signal at concentration 0.000508053 ([1]; second series): 1.11
- normalized signal at concentration 0.00152416 ([1]; second series): 0.83
- normalized signal at concentration 0.00457247 ([1]; second series): 0.98
- normalized signal at concentration 0.0137174 ([1]; second series): 1.18
- normalized signal at concentration 0.0411523 ([1]; second series): 1.02
- normalized signal at concentration 0.123457 ([1]; second series): 1.25
- normalized signal at concentration 0.37037 ([1]; second series): 0.98
- normalized signal at concentration 1.11111 ([1]; second series): 1.04
- normalized signal at concentration 3.33333 ([1]; second series): 0.97
- PbLuc_max_inhibition (%) [1, 5]: 22%
- IC50 ([2]; sheet 2nd round): > 10 µM
- Tox_max_inhibition (%) [2, 5]: -2.16%
